Patent US7737127B2, “2-propynyl adenosine analogs having A2A agonist activity and compositions thereof” (University of Virginia Patent Foundation, priority 2001, dated 2010)
Like-named read-outs stand apart in the source and are kept apart here.

What was measured:
[1] = target: T1, A3 AR (Homo sapiens, UniProt P0DMS8); assay: Radioligand competition binding (125I-ABA) to human A3 AR in HEK 293 cell membranes; conditions: for Ki: Ki from competition binding, 125I-ABA, HEK 293 cell membranes; for A3/A2A: selectivity ratio A3 over A2A
T1 sequence (P0DMS8 1-318): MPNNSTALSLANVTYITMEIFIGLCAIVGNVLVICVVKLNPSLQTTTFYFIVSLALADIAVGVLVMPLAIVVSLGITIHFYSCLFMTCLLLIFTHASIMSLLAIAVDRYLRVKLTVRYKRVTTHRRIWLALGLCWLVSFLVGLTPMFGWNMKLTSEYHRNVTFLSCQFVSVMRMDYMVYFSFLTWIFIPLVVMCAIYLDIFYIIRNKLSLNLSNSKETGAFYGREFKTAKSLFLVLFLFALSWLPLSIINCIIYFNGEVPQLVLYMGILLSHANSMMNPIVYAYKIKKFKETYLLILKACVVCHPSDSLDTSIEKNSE

[2] = target: recombinant human A2A receptors (Homo sapiens, UniProt P29274); assay: Radioligand competition binding to recombinant human A2A receptors in Sf9 cell membranes; conditions: Ki from competition binding, Sf9 cell membranes
Sequence of recombinant human A2A receptors (P29274 whole entry): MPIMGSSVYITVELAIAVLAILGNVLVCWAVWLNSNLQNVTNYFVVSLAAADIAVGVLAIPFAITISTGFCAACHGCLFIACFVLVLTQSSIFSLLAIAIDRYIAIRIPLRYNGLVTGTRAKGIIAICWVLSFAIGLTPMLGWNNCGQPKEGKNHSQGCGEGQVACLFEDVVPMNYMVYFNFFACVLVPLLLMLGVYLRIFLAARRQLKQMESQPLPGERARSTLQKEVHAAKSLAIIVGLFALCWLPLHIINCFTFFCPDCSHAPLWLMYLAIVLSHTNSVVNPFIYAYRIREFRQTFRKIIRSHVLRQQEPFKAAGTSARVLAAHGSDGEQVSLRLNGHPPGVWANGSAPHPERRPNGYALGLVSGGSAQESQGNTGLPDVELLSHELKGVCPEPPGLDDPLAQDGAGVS

[3] = system: human neutrophils; assay: Human neutrophil oxidative activity, luminol-enhanced chemiluminescence; type: cell-based; conditions: for EC50: Homo sapiens, Neutrophil, read-out: PMN oxid (-log EC50) (converted); for EC50 / PMN oxid (-log EC50): human neutrophil experiment w/o Rolipram; for PMN oxid + roli (-log EC50): human neutrophil experiment w/Rolipram
In short: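 Purified human neutrophils (5–10×10^5/ml) pre-incubated 30 min at 37 °C with the A2A agonist, ± rolipram and ± TNF-α (1 U/ml), then stimulated with fMLP (1 μM final). Peak luminol-enhanced chemiluminescence expressed as percent of no-agonist control. EC50 from three donors.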

[4] = target: T2, human A1 AR (Homo sapiens, UniProt P30542); assay: Radioligand competition binding (125I-ABA) to human A1 AR in CHO K1 cell membranes; conditions: for Ki: Ki from competition binding, 125I-ABA, CHO K1 cell membranes; for A1/A2A: selectivity ratio A1 over A2A
T2 sequence (P30542 1-326): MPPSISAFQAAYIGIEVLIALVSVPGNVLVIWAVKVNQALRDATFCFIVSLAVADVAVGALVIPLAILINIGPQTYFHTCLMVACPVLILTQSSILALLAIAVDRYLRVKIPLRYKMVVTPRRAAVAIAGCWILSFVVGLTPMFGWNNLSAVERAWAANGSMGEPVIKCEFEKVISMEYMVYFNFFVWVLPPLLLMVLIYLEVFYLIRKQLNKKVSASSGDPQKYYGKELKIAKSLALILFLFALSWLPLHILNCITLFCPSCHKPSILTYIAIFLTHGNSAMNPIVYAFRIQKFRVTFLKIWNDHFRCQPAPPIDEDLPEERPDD
Procedure: Sf9 cells were cultured in Grace's medium supplemented with 10% fetal bovine serum, 2.5 μg/ml amphotericin B and 50 μg/ml gentamycin in an atmosphere of 50% N2/50% O2. […] Infected cells were harvested 3 days post-infection and washed twice in insect PBS (PBS pH 6.3). Cells were then resuspended in lysis buffer (20 mM HEPES pH 7.5, 150 mM NaCl, 3 mM MgCl2, 1 mM β-mercaptoethanol (BME), 5 μg/mL leupeptin, 5 μg/mL pepstatin A, 1 μg/mL aprotinin, and 0.1 mM PMSF) and snap frozen for storage at −80° C. Cells were thawed on ice, brought to 30 mL total volume in lysis buffer, and burst by N2 cavitation (600 psi for 20 minutes). A low-speed centrifugation was performed to remove any unlysed cells (1000×g for 10 minutes), followed by a high-speed centrifugation (17,000×g for 30 minutes). The pellet from the final centrifugation was homogenized in buffer containing 20 mM HEPES pH 8, 100 mM NaCl, 1% glycerol, 2 μg/mL leupeptin, 2 μg/mL pepstatin A, 2 μg/mL Aprotinin, 0.1 mM PMSF, and 10 μM GDP using a small glass homogenizer followed by passage through a 26 gauge needle. Membranes were aliquoted, snap frozen in liquid N2, and stored at −80° C.
Binding experiments were performed in triplicate with 5 μg (A2A) or 25 μg (A1 and A3) membrane protein in a total volume of 0.1 mL HE buffer (20 mM HEPES and 1 mM EDTA) with 1 U/mL adenosine deaminase and 5 mM MgCl2 with or without 50 μM GTPγS. Membranes were incubated with radioligands at room temperature for three hours (for agonists) or two hours (for antagonists) in Millipore Multiscreene® 96-well GF/C filter plates and assays were terminated by rapid filtration on a cell harvester (Brandel, Gaithersburg, Md.) followed by 4×150 μl washes over 30 seconds with ice cold 10 mM Tris-HCl, pH 7.4, 10 mM MgCl2.

CCNC(=O)[C@H]1O[C@@H](n2cnc3c(N)nc(C#CCC4CCC(C(=O)OCCNC(=O)OC(C)(C)C)CC4)nc32)C(O)C1O (stereo in doubt) [JR-3021, 4-{3-[6-Amino-9-(5-ethylcarbamoyl-3,4-dihydroxy-tetrahydrofuran-2-yl)-9H-purin-2-yl]-prop-2-ynyl}-cyclohexanecarboxylic acid 2-tert-butoxycarbonylamino-ethyl ester]
Ki ([1]; A3 ± SEM): 41 ± 1 nM
A3/A2A [1]: 25.6
Ki ([2]; A2A ± SEM): 1.6 ± 0.5 nM
EC50 [3]: 26.3 nM
PMN oxid + roli (-log EC50) [3]: 8.58
Ki ([4]; A1 ± SEM): 107 ± 10 nM
A1/A2A [4]: 66.9

CCNC(=O)[C@H]1O[C@@H](n2cnc3c(N)nc(C#CCC4CCC(COC(C)=O)CC4)nc32)C(O)C1O (stereo in doubt) [ATL-193, Acetic acid 4-{3-[6-amino-9-(5-ethylcarbamoyl-3,4-dihydroxytetrahydrofuran-2-yl)-9H-purin-2-yl]-prop-2-ynyl}-cyclohexylmethyl ester]
Ki ([1]; A3 ± SEM): 231 ± 91 nM
A3/A2A [1]: 210.0
Ki ([2]; A2A ± SEM): 1.1 ± 0.2 nM
EC50 [3]: 3.09 nM
PMN oxid + roli (-log EC50) [3]: 9.46
Ki ([4]; A1 ± SEM): 71 ± 14 nM
A1/A2A [4]: 64.5

CCNC(=O)[C@H]1O[C@@H](n2cnc3c(N)nc(C#CC4(O)CCC(CC)CC4)nc32)C(O)C1O (stereo in doubt) [JR-3149, 5-[6-Amino-2-(4-ethyl-1-hydroxy-cyclohexylethynyl)-purin-9-yl]-3,4-dihydroxytetrahydrofuran-2-carboxylic acid ethylamide]
Ki ([1]; A3 ± SEM): 7.3 ± 1.9 nM
A3/A2A [1]: 13.5
Ki ([2]; A2A ± SEM): 0.5 ± 0.05 nM
EC50 [3]: 2.19 nM
PMN oxid + roli (-log EC50) [3]: 9.63
Ki ([4]; A1 ± SEM): 3.8 ± 0.4 nM
A1/A2A [4]: 7.0

CCNC(=O)[C@H]1O[C@@H](n2cnc3c(N)nc(C#CCC4CCC(C(C)O)CC4)nc32)C(O)C1O (stereo in doubt) [JR-3121, 5-(6-Amino-2-{3-[4-(1-hydroxy-ethyl)-cyclohexyl]-prop-1-ynyl}-purin-9-yl)-3,4-dihydroxytetrahydrofuran-2-carboxylic acid ethylamide]
Ki ([1]; A3 ± SEM): 71 ± 16 nM
A3/A2A [1]: 12.6
Ki ([2]; A2A ± SEM): 5.7 ± 0.6 nM
EC50 [3]: 105 nM
PMN oxid + roli (-log EC50) [3]: 8.31
Ki ([4]; A1 ± SEM): 52.3 ± 7.6 nM
A1/A2A [4]: 9.3

CCNC(=O)[C@H]1O[C@@H](n2cnc3c(N)nc(C#CCC4CCC(CN(C)C)CC4)nc32)C(O)C1O (stereo in doubt) [JR-3023, 5-{6-Amino-2-[3-(4-dimethylaminomethyl-cyclohexyl)-prop-1-ynyl]-purin-9-yl}-3,4-dihydroxytetrahydrofuran-2-carboxylic acid ethylamide]
Ki ([1]; A3 ± SEM): 61 ± 6 nM
A3/A2A [1]: 16.3
Ki ([2]; A2A ± SEM): 3.8 ± 2 nM
EC50 [3]: 42.7 nM
PMN oxid + roli (-log EC50) [3]: 8.66
Ki ([4]; A1 ± SEM): 14 ± 0.8 nM
A1/A2A [4]: 3.7

CCNC(=O)[C@H]1O[C@@H](n2cnc3c(N)nc(C#CCC4CCC(C(C)=O)CC4)nc32)C(O)C1O (stereo in doubt) [JR-3119, 5-{2-[3-(4-Acetyl-cyclohexyl)-prop-1-ynyl]-6-aminopurin-9-yl}-3,4-dihydroxytetrahydrofuran-2-carboxylic acid ethylamide]
Ki ([1]; A3 ± SEM): 18.6 ± 4.4 nM
A3/A2A [1]: 7.7
Ki ([2]; A2A ± SEM): 2.4 ± 0.2 nM
EC50 [3]: 28.8 nM
PMN oxid + roli (-log EC50) [3]: 8.7
Ki ([4]; A1 ± SEM): 28.7 ± 3.3 nM
A1/A2A [4]: 11.9

CCNC(=O)[C@H]1O[C@@H](n2cnc3c(N)nc(C#C[C@@]4(O)CCC[C@@H](C)C4)nc32)C(O)C1O (stereo partly shown) [JR-3221, 5-[6-Amino-2-(1-hydroxy-3-methylcyclobexylethynyl)purin-9-yl]-3,4-dihydroxytetrahydrofuran-2-carboxylic acid ethylamide]
Ki ([1]; A3 ± SEM): 9 ± 5.5 nM
A3/A2A [1]: 1.8
Ki ([2]; A2A ± SEM): 5.08 ± 0.81 nM
EC50 [3]: 50.1 nM
PMN oxid + roli (-log EC50) [3]: 8.21
Ki ([4]; A1 ± SEM): 19.5 ± 0.12 nM
A1/A2A [4]: 3.8

CCNC(=O)[C@H]1O[C@@H](n2cnc3c(N)nc(C#CCC4CCN(C(=O)OC(C)C)CC4)nc32)C(O)C1O (stereo in doubt) [JR-4009, 4-{3-[6-Amino-9-(5-ethylcarbamoyl-3,4-dihydroxytetrahydrofuran-2-yl)-9H-purin-2-yl]-prop-2-ynyl}-piperidine-1-carboxylic acid isopropyl ester]
Ki ([1]; A3 ± SEM): 86 nM
A3/A2A [1]: 60.1
Ki ([2]; A2A ± SEM): 1.43 ± 0.23 nM
EC50 [3]: 3.55 nM
Ki ([4]; A1 ± SEM): 167 nM
A1/A2A [4]: 116.4

CCNC(=O)[C@H]1O[C@@H](n2cnc3c(N)nc(C#CCC4CCN(C(=O)OC)CC4)nc32)C(O)C1O (stereo in doubt) [JR-4007, 4-{3-[6-Amino-9-(5-ethylcarbamoyl-3,4-dihydroxytetrahydrofuran-2-yl)-9H-purin-2-yl]-prop-2-ynyl}-piperidine-1-carboxylic acid methyl ester]
Ki ([1]; A3 ± SEM): 65.2 nM
A3/A2A [1]: 67.2
Ki ([2]; A2A ± SEM): 0.97 ± 0.33 nM
EC50 [3]: 1.7 nM
Ki ([4]; A1 ± SEM): 34.6 ± 1.4 nM
A1/A2A [4]: 35.7

CCNC(=O)[C@H]1O[C@@H](n2cnc3c(N)nc(C#CC4(O)CCCCC4C)nc32)C(O)C1O (single isomer, unassigned) [JR-3177B, 5-[6-Amino-2-(1-hydroxy-2-methyl-cyclohexylethynyl)-purin-9-yl]-3,4-dihydroxytetrahydrofuran-2-carboxylic acid ethylamide]
Ki ([1]; A3 ± SEM): 7.5 ± 4.5 nM
A3/A2A [1]: 11.2
Ki ([2]; A2A ± SEM): 0.7 ± 0.07 nM
PMN oxid + roli (-log EC50) [3]: 9.45
PMN oxid (-log EC50) [3]: 8.5
Ki ([4]; A1 ± SEM): 15.5 ± 0.7 nM
A1/A2A [4]: 23.1

CCNC(=O)C1OC(n2cnc3c(N)nc(C#CC4(N)CCCCC4)nc32)C(O)C1O (stereo not shown) [JR-3205]
Ki ([1]; read-out: A3 ± SEM): 31.6 ± 26.5 nM
A3/A2A [1]: 9.3
Ki ([2]; read-out: A2A ± SEM): 3.4 ± 0.3 nM
PMN oxid + roli (-log EC50) [3]: 8.08
PMN oxid (-log EC50) [3]: 7.22
Ki ([4]; read-out: A1 ± SEM): 14.2 ± 1.08 nM
A1/A2A [4]: 4.2

COC(=O)C1CCC(CC#Cc2nc(N)c3ncn(C4OC(CO)C(O)C4O)c3n2)CC1 (stereo not shown) [JR-2145]
Ki ([1]; read-out: A3 ± SEM): 101 ± 22 nM
A3/A2A [1]: 150.7
Ki ([2]; read-out: A2A ± SEM): 0.7 ± 0.16 nM
PMN oxid + roli (-log EC50) [3]: 8.57
PMN oxid (-log EC50) [3]: 7.19
Ki ([4]; read-out: A1 ± SEM): 28.3 ± 7.3 nM
A1/A2A [4]: 42.2

CCNC(=O)[C@H]1O[C@@H](n2cnc3c(N)nc(C#CCC4CCC(CO)CC4)nc32)C(O)C1O (stereo in doubt) [ATL-2037, 5-{6-Amino-2-[3-(4-hydroxymethyl-cyclohexyl)-prop-1-ynyl]-purin-9-yl}-3,4-dihydroxytetrahydrofuran-2-carboxylic acid ethylamide]
Ki ([1]; A3 ± SEM): 76 ± 6 nM
A3/A2A [1]: 50.3
Ki ([2]; A2A ± SEM): 1.5 ± 0.01 nM
EC50 [3]: 32.4 nM
PMN oxid + roli (-log EC50) [3]: 8.7
Ki ([4]; A1 ± SEM): 19 ± 1 nM
A1/A2A [4]: 12.6

CCNC(=O)C1OC(n2cnc3c(N)nc(C#CC(O)C4CCCCC4)nc32)C(O)C1O (single isomer, unassigned) [JR-3159B]
Ki ([1]; read-out: A3 ± SEM): 2.6 ± 0.3 nM
A3/A2A [1]: 7.4
Ki ([2]; read-out: A2A ± SEM): 0.4 ± 0.07 nM
PMN oxid + roli (-log EC50) [3]: 10.36
PMN oxid (-log EC50) [3]: 9.44
Ki ([4]; read-out: A1 ± SEM): 2 ± 0.21 nM
A1/A2A [4]: 5.7

CCNC(=O)[C@H]1O[C@@H](n2cnc3c(N)nc(C#CC4(O)CCCCC4C)nc32)C(O)C1O (single isomer, unassigned) [JR-3181B, 5-[6-Amino-2-(1-hydroxy-2-methyl-cyclohexylethynyl)-purin-9-yl]-3,4-dihydroxytetrahydrofuran-2-carboxylic acid ethylamide]
Ki ([1]; A3 ± SEM): 38.9 ± 4.8 nM
A3/A2A [1]: 58.1
Ki ([2]; A2A ± SEM): 0.7 ± 0.07 nM
PMN oxid + roli (-log EC50) [3]: 9.67
PMN oxid (-log EC50) [3]: 8.57
Ki ([4]; A1 ± SEM): 24.2 ± 6.2 nM
A1/A2A [4]: 36.1
